Experimental data taken from patent US11053468B2, “Multiwell cell culture system having rotating shafts for mixing culture media and method of use thereof” (The Johns Hopkins University, priority 2015, dated 2021).

How the values were obtained:
[1] = tested on: human developing cerebral cortex organoids; assay: Toxin screening of BPA in the 12-well culture system, proliferation of neuronal precursor cells; type: cell-based; details: different concentrations of BPA
Description: Culture conditions were systemically tested to optimize protocols. Additionally, screening was performed to test the effects of Bisphenol A (BPA) on neurogenesis in the organoid system.
Toxin screening was performed using the 12-well culture system. Images of the effect of different concentrations of BPA on human developing cerebral cortex organoids were taken (data not shown).

[2] = tested on: NPCs in forebrain organoids; assay: Acute BPA treatment of forebrain organoids (24 hr), EdU pulse-labeling and PH3 immunostaining; type: cell-based, human; details: acute treatment with higher BPA concentrations for 24 hr
Description: (§1) The apparent homogeneity of forebrain organoids, small volume per condition, and multi-well format of SpinΩ comprise a platform that is amenable to chemical compound testing. As a proof of principle, we tested the effect of Bisphenol A (BPA), which is commonly found in household plastic products and is known to affect rodent neural development.
For the acute BPA treatment experiment, forebrain organoids were grown to day 28 and treated with corresponding concentrations of BPA for 24 hr. At day 29, the culture media was replaced with fresh media and washed 3 times to remove residual BPA. Organoids were then pulsed with 10 μM EdU for 2 hr. The media was then replaced and organoids were washed 3 times with fresh media. At day 30, organoids were fixed for immunohistochemistry and EdU detection using Click-iT® EdU Alexa Fluor® 488 Imaging Kit (ThermoFisher C10337) according to the manufacturer's manual, followed by immunostaining for SOX2 and PH3. Images were acquired with a Zeiss' LSM 700 Confocal system at 25× magnification. Quantification was performed by counting the number of EdU and PH3+ nuclei within SOX2+ ventricular structures that were defined by neural tube-like morphology. EdU and PH3 densities were normalized to the area of ventricular structures measured in ImageJ software. Quantification was conducted by investigators blind to culture conditions.

[3] = tested on: forebrain organoids; assay: Long-term BPA treatment of forebrain organoids (days 14 to 28), relative VZ thickness; type: cell-based, human; details: treatment from days 14 to 28; forebrain organoids in SpinΩ
Description: as §1
Forebrain organoids were grown using the protocol described above. For the long-term BPA treatment experiment, forebrain organoids at day 14 from the same batch were distributed randomly into separate wells within SpinQ and treated with different concentrations of BPA (Sigma). BPA was dissolved in sequential dilutions in differentiation media with 0.05% methanol, which was also added in the control condition. Media containing BPA was replaced every other day until analysis on day 28. […] Quantification was conducted by investigators blind to culture conditions.
Organoids grown from the “intrinsic protocol” and forebrain protocol were immunostained for SOX2, TUJ1 and CTIP2 at days 14 and 28. […] The length for VZ and outer layer was measured in ImageJ™ software. […] Relative thicknesses for VZ, SVZ and CP were calculated by the ratio to total thickness from ventricular to pial surface.

[4] = tested on: forebrain organoids; assay: Signaling-molecule treatment of embryoid bodies during the Matrigel stage, activated caspase-3 (CAS3) immunostaining; type: cell-based, human; details: for number of CAS3+ cells at day 14: combined treatment with the three factors CHIR99021, WNT3A and SB-431542 during the Matrigel stage
Description: To reduce tissue heterogeneity, we pre-patterned embryoid bodies to the fate of a specific brain region. We first treated human iPSCs with dual SMAD inhibitors (dorsomorphin and A-83) for 7 days and then embedded embryoid bodies in Matrigel for another 7 days, followed by Matrigel removal and spinning in SpinΩ (FIG. 12). Compared to the “intrinsic protocol,” we could reliably generate organoids from multiple iPSC lines with reduced heterogeneity in organoid shape and size (data not shown). However, there was significant cell death within organoids, as shown by activated caspase-3 (CAS3) immune-staining (data not shown). We then tested combinations of different signaling molecules for various durations. […] Later, we determined that the WNT3A contribution was minimal, likely because WNT3A and CHIR99021 activate the same downstream signaling pathway (data not shown). At day 14, well-defined polarized neuroepithelium-like structures resembled neural tubes, with a nearly pure population of NESTIN+SOX2+ NPCs and expression of adherent junction markers (b-CATENIN and PKC1) and proliferation marker phosphohistone H3 (PH3) near the ventricular surface (data not shown). […] Upon spinning in SpinΩ, organoids developed into multi-layer stratified structures, composed of SOX2+NPCs, TBR2+ intermediate progenitor cells (IPCs), and CTIP2+ neurons (data not shown). With a small volume, it became affordable to supplement media with growth factors at later stages (data not shown).
To generate forebrain-specific organoids, human iPSC colonies were detached 7 days after passage with Collagenase Type IV, washed with fresh stem cell medium and cultured in a 15 ml conical tube. On day 1, detached and washed iPSC colonies were transferred to an Ultra-Low attachment 6-well plate (Corning Costar), containing 3 ml of stem cell medium (without FGF-2), plus 2 μM Dorsomorphine (Sigma) and 2 μM A83-01 (Tocris). On days 5-6, half of the medium was replaced with induction medium consisting of DMEM:F12, 1×N2 Supplement (Invitrogen), 10 μg/ml Heparin (Sigma), 1× Penicillin/Streptomycin, 1× Non-essential Amino Acids, 1× Glutamax, 4 ng/ml WNT-3A (R&D Systems), 1 μM CHIR99021 (Cellagentech), and 1 μM SB-431542 (Cellagentech). On day 7, organoids were embedded in Matrigel (BD Biosciences) and continued to grow in induction medium for 6 more days. On day 14, embedded organoids were mechanically dissociated from Matrigel by pipetting up and down onto the plate with a 5 ml pipette tip. Typically, 10-20 organoids were transferred to each well of a 12-well spinning bioreactor (FIGS. 1-11) containing differentiation medium, consisting of DMEM:F12, 1×N2 and B27 Supplements (Invitrogen), 1× Penicillin/Streptomycin, 1×2-Mercaptoenthanol, 1× Non-essential Amino Acids, 2.5 μg/ml Insulin (Sigma). […]

With `CC(C)(c1ccc(O)cc1)c1ccc(O)cc1` [BPA, Bisphenol A] the “proliferation rate of neuronal precursor cells in human organoids” value [1] was “dose-dependent effect”, the “density of PH3+ NPCs” value [2] was “decreased density” and the “density of EdU+ NPCs” value ([2]; then EdU pulse) was “decreased density”. For the same molecule, the “relative VZ thickness at day 28” value [3] was “dose-dependent decrease”.

`Cc1c[nH]c(-c2cnc(NCCNc3ccc(C#N)cn3)nc2-c2ccc(Cl)cc2Cl)n1` [CHIR99021] was tested, and the “number of CAS3+ cells at day 14” value [4] was “drastically reduced”.

For `NC(=O)c1ccc(-c2nc(-c3ccc4c(c3)OCO4)c(-c3ccccn3)[nH]2)cc1` [SB-431542], the “number of CAS3+ cells at day 14” value [4] was “drastically reduced”.

B1: WNT3A: recombinant WNT3A protein (protein, UniProt P56704 19-352, looked up)
Protein Wnt-3a: SYPIWWSLAVGPQYSSLGSQPILCASIPGLVPKQLRFCRNYVEIMPSVAEGIKIGIQECQHQFRGRRWNCTTVHDSLAIFGPVLDKATRESAFVHAIASAGVAFAVTRSCAEGTAAICGCSSRHQGSPGKGWKWGGCSEDIEFGGMVSREFADARENRPDARSAMNRHNNEAGRQAIASHMHLKCKCHGLSGSCEVKTCWWSQPDFRAIGDFLKDKYDSASEMVVEKHRESRGWVETLRPRYTYFKVPTERDLVYYEASPNFCEPNPETGSFGTRDRTCNVSSHGIDGCDLLCCGRGHNARAERRREKCRCVFHWCCYVSCQECTRVYDVHTCK
B1 was tested, and the “number of CAS3+ cells at day 14” value [4] was “drastically reduced” and the “contribution to the reduction of CAS3+ cells” value ([4]; within the three-factor treatment, WNT3A and CHIR99021 activate the same downstream pathway) was “minimal”.
